Laboratory results: the NIST ThermoML archive (doi:10.1016/j.jct.2005.08.005)

Experiment: refractive index (other wavelength) (dimensionless); xn = mol fraction of the nth substance listed
Conditions: 101.3 kPa, Liquid, Wavelength=632.8 nm, Method described in references 3 and 4 of the article

N#Cc1ccccc1 [benzonitrile] + CCCCCCCCCCCCCCCC
Conditions | refractive index
294.62 K, x1 = 1 | 1.5246
295.4 K, x1 = 0.0997 | 1.4353
296.2 K, x1 = 0.1982 | 1.4385
296.22 K, x1 = 0.3022 | 1.4432
296.49 K, x1 = 0.8855 | 1.499
296.97 K, x1 = 1 | 1.5235
297.19 K, x1 = 0.0997 | 1.4346
297.59 K, x1 = 0.1982 | 1.438
298.03 K, x1 = 0.3972 | 1.4472
298.19 K, x1 = 0.3022 | 1.4423
298.57 K, x1 = 0.8855 | 1.498
299.03 K, x1 = 0.0997 | 1.4338
299.08 K, x1 = 1 | 1.5224
299.56 K, x1 = 0.3972 | 1.4466
299.75 K, x1 = 0.3022 | 1.4416
299.78 K, x1 = 0.1982 | 1.437
300.77 K, x1 = 0.0997 | 1.433
301.05 K, x1 = 0.3022 | 1.441
301.05 K, x1 = 0.8855 | 1.4969
301.17 K, x1 = 0.1982 | 1.4365
301.26 K, x1 = 0.3972 | 1.4459
301.39 K, x1 = 1 | 1.5213
301.64 K, x1 = 0.1982 | 1.4362
302.7 K, x1 = 0.0997 | 1.4323
302.75 K, x1 = 0.3972 | 1.4452
302.86 K, x1 = 0.3022 | 1.4403
302.96 K, x1 = 0.4976 | 1.4519
303.42 K, x1 = 1 | 1.5203
303.45 K, x1 = 0.7947 | 1.481
303.59 K, x1 = 0.8855 | 1.4957
303.7 K, x1 = 0.4976 | 1.4515
303.82 K, x1 = 0.1982 | 1.4353
304.08 K, x1 = 0.0997 | 1.4317
304.21 K, x1 = 0.3972 | 1.4446
304.25 K, x1 = 0.3022 | 1.4397
304.25 K, x1 = 0.4976 | 1.4512
304.4 K, x1 = 0.7947 | 1.4806
304.69 K, x1 = 0.595 | 1.4585
304.73 K, x1 = 0.4976 | 1.451
305.22 K, x1 = 0.7947 | 1.4802
305.41 K, x1 = 0.3972 | 1.444
305.44 K, x1 = 0.6854 | 1.4668
305.47 K, x1 = 0.595 | 1.4582
305.66 K, x1 = 0.1982 | 1.4346
305.66 K, x1 = 0.4976 | 1.4507
305.86 K, x1 = 0.0997 | 1.4309
305.86 K, x1 = 0.3022 | 1.439
305.89 K, x1 = 0.7947 | 1.4799
305.92 K, x1 = 1 | 1.5191
305.98 K, x1 = 0.8855 | 1.4946
306.25 K, x1 = 0.6854 | 1.4665
306.37 K, x1 = 0.595 | 1.4578
306.66 K, x1 = 0.6854 | 1.4663
306.68 K, x1 = 0.7947 | 1.4795
307.36 K, x1 = 0.595 | 1.4574
307.66 K, x1 = 0.6854 | 1.4658
307.86 K, x1 = 0.8855 | 1.4937
308.18 K, x1 = 0.595 | 1.457
308.42 K, x1 = 0.6854 | 1.4655
